Data as given in patent US12440581B2, “Fluorophores for super-resolution imaging” (HOWARD HUGHES MEDICAL INSTITUTE, priority 2019, dated 2025).
Where two headings read alike, the source gives them in different places.

Key:
[1] = tested on: histone H2A.Z-HaloTag fusion; assay: Comparison of HaloTag ligands 6HTL and 9HTL in live yeast; type: cell-based, S. cerevisiae; settings: 10 nM, 2 h, washed, wide-field fluorescence
Protocol: Comparison of HaloTag ligands 6HTL and 9HTL. in live yeast. A S. cerevisiae strain expressing a histone H2A.Z-HaloTag fusion under natural promoter control was created; the PDR5 transporter gene was also deleted for improved cellular retention of fluorescent ligands. Cells were grown to early log phase and incubated with either JF552-HaloTag ligand (9HTL; 10 nM) or JF549-HaloTag ligand (6HTL; 10 nM) for 2 h. Free ligand was removed by three washes in culture media and the live cells were imaged by wide-field fluorescence microscopy at ambient temperature.

[2] = Absorption of dyes 1 and 2 in the presence of laboratory detergents; type: physicochemical; settings: 20 mM sodium phosphate buffer, pH 7.0, 5 mg/mL detergent
Protocol: FIGS. 11A-11J. FIG. 11A-Absorption at λabs for dyes 1 and 2 in 20 mM sodium phosphate buffer, pH 7.0 containing 5 mg/mL detergent, error bars show±s.e.m. FIGS. 11B and 11C-Absorption spectra for dyes 1 (FIG. 11B) and 2 (FIG. 11C) near λabs in the presence (dashed line) or absence (solid line) of SDS. FIG. 11D—Chemical structures and properties of HaloTag ligands 1HTL-10HTL; ΔA/A0 indicates the change in absorption (ΔA) and ΔF/F0 indicates the change in fluorescence (ΔF) of the HaloTag ligands upon binding purified HaloTag protein divided by the basal absorption or fluorescence of the free ligand (F0 or A0). FIG. 11E—ΔA/A0 of the HaloTag ligands 1HTL-10HTL vs. KL-Z of the corresponding free dyes 1-10; the solid line indicates a linear fit (R^2=0.93). (f) ΔF/F0 vs. ΔA/A0 for the HaloTag ligands 1HTL-10HTL; the solid line indicates a linear fit (R^2=0.87). FIG. 11G—Normalized absorption (abs, solid line), normalized fluorescence excitation (ex, dashed line), and FIG. 11H—normalized fluorescence emission (em) spectra for dye 8 in 10 mM HEPES, pH 7.3.
The mechanism of SiR/JF646 fluorogenicity. […] The interaction between the Si-rhodamine dyes 1 and 2 and SDS was further characterized by measuring the absorption of 1 or 2 vs. [SDS] and observing the absorbance increase only above the critical micelle concentration (c.m.c.) of SDS (FIG. 1C). […]

[3] = Introduction, known dyes; cited from earlier work
[4] = Introduction, known dyes; cited from earlier work; remark: listed apart in the source
[5] = Determination KL-Z and εmax; type: physicochemical; settings: for εmax: 0.1% TFA in TFE (rhodamine 10), 0.1% TFA in ethanol (Si-rhodamine 8); for KL-Z (lactone-zwitterion equilibrium constant): 1:1 (v/v) dioxane:water, 0.01% triethylamine
Protocol: Determination KL-Z and εmax. The lactone-zwitterion equilibrium constant (KL-Z) was calculated as described previously^18,41 using equation 1: KL-Z=(εdw/εmax)/(1−εdw/εmax) (1) • where εdw is the extinction coefficient of the dyes in a 1:1 (v/v) dioxane:water solvent mixture containing 0.01% (v/v) triethylamine; the dioxane-water mixture was chosen to give a large range of KL-Z values and the triethylamine additive ensures the rhodamines are in the net neutral form. The emax (maximal extinction coefficient) values were measured in 0.1% (v/v) trifluoroacetic acid (TFA) in 2,2,2-trifluoroethanol (TFE) for rhodaminc 10, and 0.1% (v/v) TFA in ethanol for the Si-rhodamine 8.
Instead, a solution of strong acid in alcoholic solvents was used (e.g., TFA in […]) to shift the equilibrium to the open form by protonation of the o-carboxyl group. This decades-old procedure^36 allows estimation of the maximal extinction coefficient (εmax) and determination of KL-Z=(ε/εmax)/(1−ε/εmax).
The KL-Z was determined using ε values measured in 1:1 dioxane:water to ensure a broad distribution of values.^18 An inverse relationship was observed between KL-Z and fluorogenicity, showing that KL-Z is sufficient to accurately predict the increase in fluorescence of rhodamine dyes. This increase in fluorescence is primarily driven by the increase in absorption; chromogenicity is correlated both with KL-Z and fluorogenicity (FIGS. 11E-11J). Importantly, this trend holds across different rhodamine scaffolds including Si-rhodamines (1-3), carborhodamines (4-5), and classic, oxygen-containing rhodamines (6-7, FIG. 1C). Based on this inverse relationship a simple rubric was determined: a dye with KL-Z<10^−2 should yield a HaloTag ligand with at least 10-fold fluorogenicity (FIG. 1E).

[6] = Quantum yield determination; type: physicochemical; settings: for ϕ (fluorescence quantum yield): absolute, integrating sphere
Protocol: (§1) Quantum yield determination. All reported absolute fluorescence quantum yield values (Φ) were measured in the laboratory under identical conditions using a Quantaurus-QY spectrometer (model C11374, Hamamatsu). This instrument uses an integrating sphere to determine photons absorbed and emitted by a sample. Measurements were carried out using dilute samples (A<0.1) and self-absorption corrections were performed using the instrument software^57 when appropriate. Reported values are averages (n=3).

[7] = UV-vis and fluorescence spectroscopy; type: physicochemical; settings: for εw / λabs / λem: 10 mM HEPES, pH 7.3; for hypsochromic shift: relative to parent dye (SiR for SiR110; JF549 for JF525)
Protocol: UV-vis and fluorescence spectroscopy. […] Spectroscopy was performed using 1-cm path length, 3.5-mL quartz cuvettes or 1-cm path length, 1.0-ml quartz microcuvettes (Starna Cells). All measurements were taken at ambient temperature (22±2° C.). Absorption spectra were recorded on a Cary Model 100 spectrometer (Agilent). Fluorescence spectra were recorded on a Cary Eclipse fluorometer (Varian). Maximum absorption wavelength (λabs), extinction coefficient (εw), and maximum emission wavelength (λem) were taken in 10 mM HEPES, pH 7.3 buffer unless otherwise noted; reported values for ew are averages (n=3). Normalized spectra are shown for clarity.

[8] = Introduction, known dyes, cited from earlier work; for ε (extinction coefficient): free dye in aqueous solution
polyA·polyT DNA (DNAAT) = assay: Quantum yield of 10HST following binding DNA (polyA·polyT); settings: PBS pH 7.4, with polyA·polyT DNA duplex
Protocol: as §1
(§2) Measurement of increase in absorbance and fluorescence of 10HST following binding DNA. 10HST (5 μM) was added to phosphate buffered saline (PBS; pH 7.4) containing no DNA (blank), a DNA duplex with sequences 5′-A20-3′ and 5′-T20-3′ (polyA·polyT; i.e., DNAAT; 50 μM; Integrated DNA Technologies), or a DNA duplex with sequences 5′-G20-3′ and 5′-C20-3′ (polyG·polyC; i.e., DNAGC; 50 μM; Integrated DNA Technologies). These solutions were incubated for 2 h at ambient temperature, followed by measurement of absorption spectra. The solutions were then diluted to 500 nM in PBS for measurement of fluorescence spectra or diluted to 1.25 μM in PBS for measurement of quantum yield. Found: 10HST Φ=0.009; 10HST·DNAAT Φ=0.126; 10HST·DNAGC Φ=0.040.

polyG·polyC DNA (DNAGC) = assay: Quantum yield of 10HST following binding DNA (polyG·polyC); settings: PBS pH 7.4, with polyG·polyC DNA duplex
Protocol: as §1, §2

Row | Molecule | εmax [5] | KL-Z (lactone-zwitterion equilibrium constant) [5] | ϕ (fluorescence quantum yield) [6] | εw [7] | λabs [7] | λem [7] | further results
1 | O=C(NCCOCCOCCCCCCCl)c1ccc2c(c1)C1(OC2=O)c2ccc(N3CCC3)cc2Oc2cc(N3CCC3)ccc21 [6HTL] | – | – | – | – | – | – | labeling of yeast nuclei (fluorescence signal) [1]: relatively poor labeling
2 | O=C(NCCOCCOCCCCCCCl)c1ccc(C(=O)[O-])c(-c2c3cc(F)c(=[N+]4CCC4)cc-3oc3cc(N4CCC4)c(F)cc23)c1 [9HTL, JF552-HaloTag ligand] | – | – | – | – | – | – | labeling of yeast nuclei (fluorescence signal) [1]: high fluorescence signal
3 | CN(C)c1ccc2c(c1)[Si](C)(C)c1cc(N(C)C)ccc1C21OC(=O)c2ccccc21 [dye 1, tetramethyl-Si-rhodamine] | 141,000 M^−1cm^−1 | 0.0034 | 0.41 | – | – | – | change of absorption with detergents [2]: absorbance increases only in the presence of SDS; Φ (fluorescence quantum yield) [3]: 0.41; KL-Z [4]: 0.0034
4 | C[Si]1(C)c2cc(N3CCC3)ccc2C2(OC(=O)c3ccccc32)c2ccc(N3CCC3)cc21 [dye 2, JF646] | 152,000 M^−1cm^−1 | 0.0012 | 0.54 | 5,000 M^−1cm^−1 | 646 nm | 664 nm | change of absorption with detergents [2]: absorbance increases only in the presence of SDS; λabs [8]: 646 nm; λem [8]: 664 nm; ε (extinction coefficient) [8]: 5,000 M^−1 cm^−1; Φ (fluorescence quantum yield) [3]: 0.54; KL-Z [4]: 0.0012
5 | C[Si]1(C)c2cc(N3CC(F)C3)ccc2C2(OC(=O)c3ccccc32)c2ccc(N3CC(F)C3)cc21 [dye 3, JF635] | 167,000 M^−1cm^−1 | <0.0001 | 0.56 | ~400 M⁻¹ cm⁻¹ | 635 nm | 652 nm | λabs [8]: 635 nm; λem [8]: 652 nm; ε (extinction coefficient) [8]: 400 M⁻¹ cm⁻¹; Φ (fluorescence quantum yield) [3]: 0.54; KL-Z [4]: < 0.0001
6 | CC1(C)c2cc(N3CCC3)ccc2C2(OC(=O)c3ccccc32)c2ccc(N3CCC3)cc21 [dye 4, JF608] | 121,000 M^−1cm^−1 | 0.091 | 0.67 | 99,000 M^−1cm^−1 | 608 nm | 631 nm | –
7 | JF526-Hoechst [10HST] | – | – | – | – | – | – | Φ (polyA·polyT DNA (DNAAT)): 0.126; Φ (polyG·polyC DNA (DNAGC)): 0.040; Φ ([6]; PBS pH 7.4, no DNA (blank), 1.25 μM): 0.009
8 | Si-Rhodamine 110 [dye 8] | 94,000 M^−1cm^−1 | 0.0043 | 0.53 | 2,200 M^−1cm^−1 | 587 nm | 609 nm | hypsochromic shift [7]: ~50 nm

Continued, in another order:

Row | εmax [5] | KL-Z (lactone-zwitterion equilibrium constant) [5] | ϕ (fluorescence quantum yield) [6] | εw [7] | λabs [7] | λem [7] | Molecule | further results
9 | 156,000 M^−1cm^−1 | <0.0001 | 0.78 | 1,500 M^−1cm^−1 | 585 nm | 609 nm | CC1(C)c2cc(N3CC(F)(F)C3)ccc2C2(OC(=O)c3ccccc32)c2ccc(N3CC(F)(F)C3)cc21 [dye 5, JF585] | –
10 | 134,000 M^−1cm^−1 | 3.5 | 0.88 | 101,000 M^−1cm^−1 | 549 nm | 571 nm | O=C1OC2(c3ccc(N4CCC4)cc3Oc3cc(N4CCC4)ccc32)c2ccccc21 [dye 6, JF549] | –
11 | 122,000 M^−1cm^−1 | 0.068 | 0.91 | 94,000 M^−1cm^−1 | 525 nm | 549 nm | O=C1OC2(c3ccc(N4CC(F)(F)C4)cc3Oc3cc(N4CC(F)(F)C4)ccc32)c2ccccc21 [dye 7, JF525] | hypsochromic shift [7]: ~25 nm
12 | 129,000 M^−1cm^−1 | 0.70 | 0.83 | 95,000 M^−1cm^−1 | 552 nm | 575 nm | O=C([O-])c1ccccc1-c1c2cc(F)c(=[N+]3CCC3)cc-2oc2cc(N3CCC3)c(F)cc12 [dye 9, Janelia Fluor 552] | reduction of KL-Z ([5]; relative to JF549): 5 fold
